± gives the expanded uncertainty stated by the source.
Assay: activity coefficient (dimensionless); of the first substance listed, at infinite dilution; xn = mol fraction of the nth substance listed
Details: 101 kPa, Liquid, Chromatography, x1 = 0

| SMILES | activity coefficient (373.15 K) | activity coefficient (388.15 K) | activity coefficient (403.15 K) | activity coefficient (418.15 K) | activity coefficient (433.15 K) |
| --- | --- | --- | --- | --- | --- |
| C1C2CC3CC1CC(C2)C3 [adamantane] + CCCCCCCCCCCCCCCCCCC(CCCCCCCCCCCCCCCCCC)CCCCC(CCCCCCCCCCCCCCCCCC)CCCCCCCCCCCCCCCCCC | 0.337 ± 0.035 | 0.339 ± 0.035 | 0.337 ± 0.035 | 0.342 ± 0.035 | 0.343 ± 0.035 |
| C1=CCCC=C1 [1,3-cyclohexadiene] + CCCCCCCCCCCCCCCCCCC(CCCCCCCCCCCCCCCCCC)CCCCC(CCCCCCCCCCCCCCCCCC)CCCCCCCCCCCCCCCCCC | 0.251 ± 0.036 | 0.253 ± 0.036 | 0.255 ± 0.036 | 0.252 ± 0.036 | 0.252 ± 0.036 |
| C=CCCCCCCCCCC [1-dodecene] + CCCCCCCCCCCCCCCCCCC(CCCCCCCCCCCCCCCCCC)CCCCC(CCCCCCCCCCCCCCCCCC)CCCCCCCCCCCCCCCCCC | 0.447 ± 0.033 | 0.449 ± 0.033 | 0.453 ± 0.033 | 0.453 ± 0.033 | 0.455 ± 0.033 |
| C=CCCCCCCCCCCC [1-tridecene] + CCCCCCCCCCCCCCCCCCC(CCCCCCCCCCCCCCCCCC)CCCCC(CCCCCCCCCCCCCCCCCC)CCCCCCCCCCCCCCCCCC | 0.467 ± 0.033 | 0.466 ± 0.033 | 0.466 ± 0.033 | 0.467 ± 0.033 | 0.468 ± 0.033 |
| C1=CCC=CC1 [1,4-cyclohexadiene] + CCCCCCCCCCCCCCCCCCC(CCCCCCCCCCCCCCCCCC)CCCCC(CCCCCCCCCCCCCCCCCC)CCCCCCCCCCCCCCCCCC | 0.242 ± 0.036 | 0.244 ± 0.036 | 0.242 ± 0.036 | 0.238 ± 0.036 | 0.238 ± 0.036 |
| C=CCCCCCCC [1-nonene] + CCCCCCCCCCCCCCCCCCC(CCCCCCCCCCCCCCCCCC)CCCCC(CCCCCCCCCCCCCCCCCC)CCCCCCCCCCCCCCCCCC | 0.392 ± 0.034 | 0.394 ± 0.034 | 0.395 ± 0.034 | 0.396 ± 0.034 | 0.398 ± 0.034 |
| CC(C)C(C)C(C)C [2,3,4-trimethylpentane] + CCCCCCCCCCCCCCCCCCC(CCCCCCCCCCCCCCCCCC)CCCCC(CCCCCCCCCCCCCCCCCC)CCCCCCCCCCCCCCCCCC | 0.353 ± 0.035 | 0.356 ± 0.035 | 0.358 ± 0.035 | 0.36 ± 0.035 | 0.362 ± 0.035 |
| CCCC#CCCC [4-octyne] + CCCCCCCCCCCCCCCCCCC(CCCCCCCCCCCCCCCCCC)CCCCC(CCCCCCCCCCCCCCCCCC)CCCCCCCCCCCCCCCCCC | 0.436 ± 0.033 | 0.429 ± 0.034 | 0.424 ± 0.034 | 0.421 ± 0.034 | 0.416 ± 0.034 |
| C#CCCCCCCC [1-nonyne] + CCCCCCCCCCCCCCCCCCC(CCCCCCCCCCCCCCCCCC)CCCCC(CCCCCCCCCCCCCCCCCC)CCCCCCCCCCCCCCCCCC | 0.445 ± 0.033 | 0.443 ± 0.033 | 0.438 ± 0.033 | 0.431 ± 0.034 | 0.425 ± 0.034 |
| C=CCCCCCCCCCCCC [1-tetradecene] + CCCCCCCCCCCCCCCCCCC(CCCCCCCCCCCCCCCCCC)CCCCC(CCCCCCCCCCCCCCCCCC)CCCCCCCCCCCCCCCCCC | 0.475 ± 0.033 | 0.476 ± 0.033 | 0.475 ± 0.033 | 0.476 ± 0.033 | 0.475 ± 0.033 |
| C1CC[C@H]2CCCC[C@@H]2C1 [trans-decahydronaphthalene] + CCCCCCCCCCCCCCCCCCC(CCCCCCCCCCCCCCCCCC)CCCCC(CCCCCCCCCCCCCCCCCC)CCCCCCCCCCCCCCCCCC | 0.268 ± 0.036 | 0.279 ± 0.036 | 0.283 ± 0.036 | 0.28 ± 0.036 | 0.287 ± 0.036 |
| C#CCCCCCC [1-octyne] + CCCCCCCCCCCCCCCCCCC(CCCCCCCCCCCCCCCCCC)CCCCC(CCCCCCCCCCCCCCCCCC)CCCCCCCCCCCCCCCCCC | 0.428 ± 0.034 | 0.424 ± 0.034 | 0.417 ± 0.034 | 0.412 ± 0.034 | 0.411 ± 0.034 |
| C#CCCCC [1-hexyne] + CCCCCCCCCCCCCCCCCCC(CCCCCCCCCCCCCCCCCC)CCCCC(CCCCCCCCCCCCCCCCCC)CCCCCCCCCCCCCCCCCC | 0.39 ± 0.034 | 0.378 ± 0.034 | 0.37 ± 0.034 | 0.364 ± 0.035 | 0.36 ± 0.035 |
| C1CC[C@H]2CCCC[C@H]2C1 [cis-decahydronaphthalene] + CCCCCCCCCCCCCCCCCCC(CCCCCCCCCCCCCCCCCC)CCCCC(CCCCCCCCCCCCCCCCCC)CCCCCCCCCCCCCCCCCC | 0.268 ± 0.036 | 0.278 ± 0.036 | 0.28 ± 0.036 | 0.275 ± 0.036 | 0.279 ± 0.036 |
| c1ccccc1 [benzene] + CCCCCCCCCCCCCCCCCCC(CCCCCCCCCCCCCCCCCC)CCCCC(CCCCCCCCCCCCCCCCCC)CCCCCCCCCCCCCCCCCC | 0.269 ± 0.036 | 0.266 ± 0.036 | 0.263 ± 0.036 | 0.26 ± 0.036 | 0.258 ± 0.036 |

Now from value to compound:

| activity coefficient (373.15 K) | activity coefficient (388.15 K) | activity coefficient (403.15 K) | activity coefficient (418.15 K) | activity coefficient (433.15 K) | SMILES |
| --- | --- | --- | --- | --- | --- |
| 0.267 ± 0.036 | 0.278 ± 0.036 | 0.276 ± 0.036 | 0.273 ± 0.036 | 0.277 ± 0.036 | C1CC[C@@H]2CCC[C@H]2C1 [trans-bicyclo[4.3.0]nonane] + CCCCCCCCCCCCCCCCCCC(CCCCCCCCCCCCCCCCCC)CCCCC(CCCCCCCCCCCCCCCCCC)CCCCCCCCCCCCCCCCCC |
| 0.25 ± 0.036 | 0.251 ± 0.036 | 0.246 ± 0.036 | 0.245 ± 0.036 | 0.247 ± 0.036 | C1CCCCC1 [cyclohexane] + CCCCCCCCCCCCCCCCCCC(CCCCCCCCCCCCCCCCCC)CCCCC(CCCCCCCCCCCCCCCCCC)CCCCCCCCCCCCCCCCCC |
| 0.384 ± 0.034 | 0.397 ± 0.034 | 0.4 ± 0.034 | 0.392 ± 0.034 | 0.386 ± 0.034 | c1ccc2ccccc2c1 [naphthalene] + CCCCCCCCCCCCCCCCCCC(CCCCCCCCCCCCCCCCCC)CCCCC(CCCCCCCCCCCCCCCCCC)CCCCCCCCCCCCCCCCCC |
| 0.252 ± 0.036 | 0.257 ± 0.036 | 0.256 ± 0.036 | 0.253 ± 0.036 | 0.255 ± 0.036 | C1CCCCCC1 [cycloheptane] + CCCCCCCCCCCCCCCCCCC(CCCCCCCCCCCCCCCCCC)CCCCC(CCCCCCCCCCCCCCCCCC)CCCCCCCCCCCCCCCCCC |
| 0.492 ± 0.033 | 0.493 ± 0.033 | 0.494 ± 0.033 | 0.495 ± 0.033 | 0.495 ± 0.033 | CCCCCCCCCCCCCC [tetradecane] + CCCCCCCCCCCCCCCCCCC(CCCCCCCCCCCCCCCCCC)CCCCC(CCCCCCCCCCCCCCCCCC)CCCCCCCCCCCCCCCCCC |
| 0.397 ± 0.034 | 0.405 ± 0.034 | 0.401 ± 0.034 | 0.404 ± 0.034 | 0.401 ± 0.034 | CCCCCCc1ccccc1 [hexylbenzene] + CCCCCCCCCCCCCCCCCCC(CCCCCCCCCCCCCCCCCC)CCCCC(CCCCCCCCCCCCCCCCCC)CCCCCCCCCCCCCCCCCC |
| 0.399 ± 0.034 | 0.401 ± 0.034 | 0.403 ± 0.034 | 0.404 ± 0.034 | 0.406 ± 0.034 | CCCCCCCCC [nonane] + CCCCCCCCCCCCCCCCCCC(CCCCCCCCCCCCCCCCCC)CCCCC(CCCCCCCCCCCCCCCCCC)CCCCCCCCCCCCCCCCCC |

From the NIST ThermoML archive (doi:10.1016/j.fluid.2006.07.015)
